Assays:
[1] = MTT assay (LC50) in HeLa-cells; assay type: cell-based; conditions: human, after 24 hours
Method: The LC50 values were determined by an MTT assay according to a standard method.
The LC50 value describes the lethal concentration at which […] died within 24 hours after a one-time administration.

[2] = tested on: human dendritic cells; experiment: adhesion of dendritic cells to the substrate ICAM-1; assay type: cell-based; conditions: 1 μM, 10 μM or 15 μM, 96 hours; stimulation with PMA or MEM-48; FIG. 4
Method: Dendritic cells were produced in vitro by means of differentiation factors (IL-4 and GM-CSF) from blood monocytes that were isolated from peripheral mononuclear cells (PBMC) by Ficoll density gradient centrifugation from the human blood of anonymous donors.
The blood was mixed at a ratio of 1:1 with PBS (KCl 0.2 g/l, KH2PO4 0.2 g/l, NaCl 8 g/l, Na2HPO4 1.15 g/l, PAA, Cölbe)/2 mM EDTA and layered onto half the volume of Ficoll. Centrifugation was carried out at 300×g, 30 minutes with no brake. After the centrifugation, a centered white band appeared which contained the PBMC. This was picked up with PBS/2 mM EDTA, filled up to 50 ml and subjected to several washing steps at 640×g, 500×g, 400×g, 300×g and 200×g. […]
The quantitative analysis of the cell migration was carried out in modified Boyden chambers consisting of a 24-hole plate into which the Transwell® filters with a 5 μm pore size had been placed. […] [98.6° F.] and 5% CO2 in the incubator and subsequently, the number of cells that had migrated into the lower chamber in the direction of the chemokine was determined. […]
Under corresponding conditions, the adhesion was determined after stimulation with phorbolester (PMA, 50 ng/ml, Sigma, Taufkirchen) or anti-beta-2 integrin antibodies MEM-48 (5 μg/ml, Vaclav Horeijsi, Czech Academy of Sciences Prague). […]

COc1nc(-c2ccc3c(c2)OCO3)n(-c2ccc(NC(=O)CSc3ccccc3)cc2)n1 [Compound 9]
CC50 at 24 h [1]: 141 ± 8 µM
inhibition of the adhesion of dendritic cells on the substrate ICAM-1 [2]: concentration-dependent inhibition
